Experimental data from patent US20220195275A1, “Biocompatible Oil Herders and Methods of Use” (Texas A&M University, priority 2019, published 2022).
Values belong to the molecule of their own block, whether it stands above or below them.

Experiments:
[1] = Conductivity versus temperature / determination of Krafft point; type: physicochemical; conditions: for Conductivity: SDS (0.1 mol/L) in water
Description: The hand-held conductivity/TDS meter CN 6/TDS 6 of Oakton instruments was used to measure the conductivity and the temperature of the sample.
Sodium dodecyl sulfate (Ionic surfactant): sodium dodecyl sulfate in deionized water solution (0.1 mol/l) was prepared in a 200 ml glass beaker. The solution was stored in refrigerator at 5° C. for 24 hours. The sodium dodecyl sulfate surfactant has crystallized below the 5° C. atmosphere. The glass beaker was taken out of the refrigerator and placed on a hot plate stirrer. The conductivity meter probe was immersed into the solution. The dual measuring mode of conductivity meter could measure both the conductivity and the temperature. The solution was slightly heated to remain 0.2° C./min increase. The measured conductivity and temperature data were drawn in FIGS. 2A-2B. […]
Krafft temperature and solubility behavior of the ionic surfactant SDS and the non-ionic surfactant modified konjac glucomannan were discussed in FIGS. 2A-2D. […] The conductivity measurement was proven to be able to identify the Krafft temperature. Krafft temperature is the minimum temperature for surfactant to form micelles. There is an abrupt large solubility increase above the Krafft temperature. Surfactant working temperature should be higher than Krafft temperature for surfactant functioning.
First, 200 ml of SDS in deionized water solution of 0.1 mol/L concentration was prepared in a 200 ml glass beaker. The solution was left in refrigerator at 5° C. for 24 hours. This process has brought about the crystallization of the surfactant. The glass beaker is taken out of the refrigerator and placed on a hot plate stirrer (CORNING PC-420). The probe stick of the conductivity meter (TDS meter CON 6/TDS 6) is inserted into the solution. The dual measuring mode of conductivity meter can measure both the conductivity and the temperature. The conductivity of the solution is recorded from 12° C. and measured till 28° C. The solution is slightly heated to attain a steady temperature rise. The conductivity is measured at regular intervals of temperature (0.2° C. raise) and noted down. The whole process took about 2.5 hours. […]

[2] = Herding efficiency of PEG derivatives and commercial surfactants (slick thickness ratio vs herder concentration); conditions: 25° C.
Description: Herding surfactant is essentially a surface-active agent. To preliminarily investigate the material herding efficiency to oil, suitable polymer surfactants with […] were tested. Polyethylene glycol (PEG) is a water soluble polymer and easy to couple with hydrophobic chain to form surfactant. The experiments were performed at room temperature. The slick thickness ratio is defined as below: […]
Higher slick thickness ratio implied better herding quality. […] The effectiveness of surfactants at herding oil is directly related to the chemical structure of the PEG derivatives. […] The reason of slick thickness ratio curve of FIG. 8C and FIG. 8D remained flat were assumed to be its internal chemical structure large benzene rings and two side longer carbon chains. The benzene rings and longer carbon chains affected the steric hindrance of materials and largely restricted the hydrophobic side reaction with oil slick. They could not perform herding effect and thus curves in FIG. 8C and FIG. 8D remained flat, and the thickness ratio was close to 1.
More comparisons were tested to study herder efficiency with different commercial surfactants at varying temperatures and salinity. […] In FIG. 9B, the PEG-monolaurate retained high herding ability under 25° C. […]

[3] = system: black beans, red beans, and pinto beans; conditions: in vivo
Description: Edible black beans, red beans, and pinto beans were purchased from local supermarket. 12 black beans, 12 red beans, and 9 pinto beans were randomly chosen and set aside in lab atmosphere for 7 days. […] Beans were separated into three plastic petri dishes, into which four black beans, four red beans and three pinto beans each were placed. Three water environments were simulated, and beans were immersed with reference sea water, 0.25 wt % pristine KGM in sea water, and 0.25 wt % modified konjac glucomannan in sea water for 7 days.

Krafft temperature (sudden large increase in conductivity) ([1]; 0.1 mol/L in deionized water): 14.6 °C
Conductivity ([1]; 13 ° C.): 3.07 mS
Conductivity ([1]; 13.2 ° C.): 3.07 mS
Conductivity ([1]; 13.4 ° C.): 3.09 mS
Conductivity ([1]; 13.6 ° C.): 3.1 mS
Conductivity ([1]; 13.8 ° C.): 3.11 mS
Conductivity ([1]; 14 ° C.): 3.11 mS
Conductivity ([1]; 14.2 ° C.): 3.12 mS
Conductivity ([1]; 14.4 ° C.): 3.14 mS
Conductivity ([1]; 14.6 ° C.): 3.25 mS
Conductivity ([1]; 14.8 ° C.): 3.34 mS
Conductivity ([1]; 15 ° C.): 3.56 mS
Conductivity ([1]; 15.2 ° C.): 3.82 mS
Conductivity ([1]; 15.4 ° C.): 4.02 mS
Conductivity ([1]; 15.6 ° C.): 4.21 mS
Conductivity ([1]; 15.8 ° C.): 4.3 mS
Conductivity ([1]; 16 ° C.): 4.35 mS
Conductivity ([1]; 16.2 ° C.): 4.37 mS
Conductivity ([1]; 16.4 ° C.): 4.38 mS
Conductivity ([1]; 16.6 ° C.): 4.34 mS
Conductivity ([1]; 16.8 ° C.): 4.39 mS
Conductivity ([1]; 17 ° C.): 4.39 mS
Conductivity ([1]; 17.2 ° C.): 4.41 mS
Conductivity ([1]; 17.4 ° C.): 4.43 mS
Conductivity ([1]; 17.6 ° C.): 4.44 mS
Conductivity ([1]; 17.8 ° C.): 4.45 mS
Conductivity ([1]; 18 ° C.): 4.49 mS
Conductivity ([1]; 18.6 ° C.): 4.5 mS
Conductivity ([1]; 19 ° C.): 4.51 mS
Conductivity ([1]; 19.4 ° C.): 4.53 mS
Conductivity ([1]; 20 ° C.): 4.57 mS
Conductivity ([1]; 21 ° C.): 4.6 mS
Conductivity ([1]; 22 ° C.): 4.65 mS
Conductivity ([1]; 23 ° C.): 4.67 mS
Conductivity ([1]; 24 ° C.): 4.7 mS
Conductivity ([1]; 25 ° C.): 4.72 mS
Conductivity ([1]; 26 ° C.): 4.75 mS
Conductivity ([1]; 27 ° C.): 4.77 mS
Conductivity ([1]; 28 ° C.): 4.82 mS
Molecule: CCCCCCCCCCCCOS(=O)(=O)[O-].[Na+] [SDS, sodium dodecyl sulfate]

Molecule: Span-20
herding ability [2]: good herding ability

growth (sprouting) of beans [3]: did not affect the growth of the beans
Molecule: konjac glucomannan
